The values that follow are results of earlier work, collected in PubChem BioAssay AID1259409 (Chemical Carcinogenesis Research Information System (CCRIS), 2018).

Several values for one entry are separate records, joined by “and”; a condition that tells them apart may be missing. Equal values may be shown once.

This data set deals with rodent chemically induced tumor inhibition, incidence and multiplicity. Put plainly: CCRIS tumor inhibitor studies.

`COc1ccc2nc(S(=O)Cc3ncc(C)c(OC)c3C)[nH]c2c1` (stereo unspecified): for the setting “Carcinogen: AZOXYMETHANE, 25843-45-2, Dose [Inhibitor]: 0, 40 UMOL/KG 1/D FOR 27 WK BEGINNING 6 WK PRIOR TO CARCINOGEN TREATMENT (STUDY DURATION: 27 WK), Route [Inhibitor]: GAVAGE, Species: RAT, Strain/Sex: SPRAGUE-DAWLEY/FEMALE, Target Tissue: Type of Lesion: COLON: TUMOR, Dose [Carcinogen]: 10 MG/KG 1/WK FOR 12 WK, Promoter: NONE USED”, the “tumour outcome (control, treated, inhibition, significance)” value is listed as 19/20 (95%), 12/19 (63%), 34%, p<0.02.

Regarding `CC(C)c1cc(C(=O)O)c([O-])c(C(C)C)c1.CC(C)c1cc(C(=O)O)c([O-])c(C(C)C)c1.[Cu+2]`, the “tumour outcome (control, treated, inhibition, significance)” value is recorded as 100%, 100%, 0%, not significant (Carcinogen: 7,12-DIMETHYLBENZ[A]ANTHRACENE, 57-97-6, Dose [Inhibitor]: 500 NMOL IN 0.2 ML ACETONE APPLIED ONCE TO DORSAL SKIN 15 MIN PRIOR TO CARCINOGEN DOSE (STUDY DURATION: 20 WK), Route [Inhibitor]: DERMAL, Species: MOUSE, Strain/Sex: SENCAR/FEMALE, Target Tissue: Type of Lesion: SKIN: PAPILLOMA, Dose [Carcinogen]: 10 NMOL IN 0.2 ML ACETONE ONCE); 100%, 100%, 0%, not significant (Carcinogen: 7,12-DIMETHYLBENZ[A]ANTHRACENE, 57-97-6, Dose [Inhibitor]: 1000 NMOL IN 0.2 ML ACETONE APPLIED ONCE TO DORSAL SKIN 15 MIN PRIOR TO CARCINOGEN DOSE (STUDY DURATION: 20 WK), Route [Inhibitor]: DERMAL, Species: MOUSE, Strain/Sex: SENCAR/FEMALE, Target Tissue: Type of Lesion: SKIN: PAPILLOMA, Dose [Carcinogen]: 10 NMOL IN 0.2 ML ACETONE ONCE); 100%, 100%, 0%, not significant (Carcinogen: 7,12-DIMETHYLBENZ[A]ANTHRACENE, 57-97-6, Dose [Inhibitor]: 2000 NMOL IN 0.2 ML ACETONE APPLIED ONCE TO DORSAL SKIN 15 MIN PRIOR TO CARCINOGEN DOSE (STUDY DURATION: 20 WK), Route [Inhibitor]: DERMAL, Species: MOUSE, Strain/Sex: SENCAR/FEMALE, Target Tissue: Type of Lesion: SKIN: PAPILLOMA, Dose [Carcinogen]: 10 NMOL IN 0.2 ML ACETONE ONCE); 97%, 93%, 4%, not calculated (Carcinogen: BENZO[A]PYRENE, 50-32-8, Dose [Inhibitor]: 100 NMOL IN 0.2 ML ACETONE APPLIED ONCE TO DORSAL SKIN 15 MIN PRIOR TO CARCINOGEN DOSE (STUDY DURATION: 20 WK), Route [Inhibitor]: DERMAL, Species: MOUSE, Strain/Sex: SENCAR/FEMALE, Target Tissue: Type of Lesion: SKIN: PAPILLOMA, Dose [Carcinogen]: 200 NMOL IN 0.2 ML ACETONE ONCE); 97%, 93%, 4%, not calculated (Carcinogen: BENZO[A]PYRENE, 50-32-8, Dose [Inhibitor]: 500 NMOL IN 0.2 ML ACETONE APPLIED ONCE TO DORSAL SKIN 15 MIN PRIOR TO CARCINOGEN DOSE (STUDY DURATION: 20 WK), Route [Inhibitor]: DERMAL, Species: MOUSE, Strain/Sex: SENCAR/FEMALE, Target Tissue: Type of Lesion: SKIN: PAPILLOMA, Dose [Carcinogen]: 200 NMOL IN 0.2 ML ACETONE ONCE); 97%, 100%, -3%, not calculated (Carcinogen: BENZO[A]PYRENE, 50-32-8, Dose [Inhibitor]: 1000 NMOL IN 0.2 ML ACETONE APPLIED ONCE TO DORSAL SKIN 15 MIN PRIOR TO CARCINOGEN DOSE (STUDY DURATION: 20 WK), Route [Inhibitor]: DERMAL, Species: MOUSE, Strain/Sex: SENCAR/FEMALE, Target Tissue: Type of Lesion: SKIN: PAPILLOMA, Dose [Carcinogen]: 200 NMOL IN 0.2 ML ACETONE ONCE). Further, the “tumour outcome (control, treated, inhibition, significance)” value is 97%, 90%, 7%, not calculated (Carcinogen: BENZO[A]PYRENE, 50-32-8, Dose [Inhibitor]: 2000 NMOL IN 0.2 ML ACETONE APPLIED ONCE TO DORSAL SKIN 15 MIN PRIOR TO CARCINOGEN DOSE (STUDY DURATION: 20 WK), Route [Inhibitor]: DERMAL, Species: MOUSE, Strain/Sex: SENCAR/FEMALE, Target Tissue: Type of Lesion: SKIN: PAPILLOMA, Dose [Carcinogen]: 200 NMOL IN 0.2 ML ACETONE ONCE) and 97%, 96%, 0.3%, not calculated (Carcinogen: BENZO[A]PYRENE, 50-32-8, Dose [Inhibitor]: 4000 NMOL IN 0.2 ML ACETONE APPLIED ONCE TO DORSAL SKIN 15 MIN PRIOR TO CARCINOGEN DOSE (STUDY DURATION: 20 WK), Route [Inhibitor]: DERMAL, Species: MOUSE, Strain/Sex: SENCAR/FEMALE, Target Tissue: Type of Lesion: SKIN: PAPILLOMA, Dose [Carcinogen]: 200 NMOL IN 0.2 ML ACETONE ONCE).

For the compound `CC1=C(/C=C/C(C)=C/C=C/C(C)=C\C(=O)Nc2ccc(OC(=O)C(C)(C)C)cc2)C(C)(C)CCC1`, the “tumour outcome (control, treated, inhibition, significance)” value is 7%, 10%, -43%, not calculated (Carcinogen: N-NITROSOBIS(2-OXOPROPYL)AMINE, 60599-38-4, Dose [Inhibitor]: 0.25 MMOL/KG DIET FOR 364 D STARTING 2 WK AFTER LAST CARCINOGEN DOSE (STUDY DURATION: 55 WK), Route [Inhibitor]: ORAL, Species: HAMSTER, Strain/Sex: SYRIAN/FEMALE, Target Tissue: Type of Lesion: LIVER: CARCINOMA, Dose [Carcinogen]: 20 MG/KG INJECTION GIVEN TWICE 1 WK APART, Promoter: NONE USED); 5%, 25%, -400%, not calculated (Carcinogen: N-NITROSOBIS(2-OXOPROPYL)AMINE, 60599-38-4, Dose [Inhibitor]: 0.25 MMOL/KG DIET FOR 364 D STARTING 2 WK AFTER LAST CARCINOGEN DOSE (STUDY DURATION: 55 WK), Route [Inhibitor]: ORAL, Species: HAMSTER, Strain/Sex: SYRIAN/MALE, Target Tissue: Type of Lesion: LIVER: CARCINOMA, Dose [Carcinogen]: 20 MG/KG INJECTION GIVEN TWICE 1 WK APART, Promoter: NONE USED); 34%, 14%, 59%, not calculated and 38%, 28%, 26%, not calculated (Carcinogen: N-NITROSOBIS(2-OXOPROPYL)AMINE, 60599-38-4, Dose [Inhibitor]: 0.25 MMOL/KG DIET FOR 364 D STARTING 2 WK AFTER LAST CARCINOGEN DOSE (STUDY DURATION: 55 WK), Route [Inhibitor]: ORAL, Species: HAMSTER, Strain/Sex: SYRIAN/MALE, Target Tissue: Type of Lesion: PANCREAS: CARCINOMA, Dose [Carcinogen]: 20 MG/KG INJECTION GIVEN TWICE 1 WK APART, Promoter: NONE USED); 5%, 19%, -280%, not calculated (Carcinogen: N-NITROSOBIS(2-OXOPROPYL)AMINE, 60599-38-4, Dose [Inhibitor]: 0.5 MMOL/KG DIET FOR 209 D STARTING 2 WK AFTER LAST CARCINOGEN DOSE FOLLOWED BY 0.25 MMOL/KG DIET FOR 117 D WITH INTERMI, Route [Inhibitor]: ORAL, Species: HAMSTER, Strain/Sex: SYRIAN/FEMALE, Target Tissue: Type of Lesion: LIVER: CARCINOMA, Dose [Carcinogen]: 20 MG/KG INJECTION GIVEN TWICE 1 WK APART, Promoter: NONE USED); 38%, 27%, 29%, not calculated (Carcinogen: N-NITROSOBIS(2-OXOPROPYL)AMINE, 60599-38-4, Dose [Inhibitor]: 0.5 MMOL/KG DIET FOR 209 D STARTING 2 WK AFTER LAST CARCINOGEN DOSE FOLLOWED BY 0.25 MMOL/KG DIET FOR 117 D WITH INTERMI, Route [Inhibitor]: ORAL, Species: HAMSTER, Strain/Sex: SYRIAN/FEMALE, Target Tissue: Type of Lesion: PANCREAS: CARCINOMA, Dose [Carcinogen]: 20 MG/KG INJECTION GIVEN TWICE 1 WK APART, Promoter: NONE USED); 7%, 19%, -171%, not calculated (Carcinogen: N-NITROSOBIS(2-OXOPROPYL)AMINE, 60599-38-4, Dose [Inhibitor]: 0.5 MMOL/KG DIET FOR 209 D STARTING 2 WK AFTER LAST CARCINOGEN DOSE FOLLOWED BY 0.25 MMOL/KG DIET FOR 117 D WITH INTERMI, Route [Inhibitor]: ORAL, Species: HAMSTER, Strain/Sex: SYRIAN/MALE, Target Tissue: Type of Lesion: LIVER: HEPATOCELLULAR CARCINOMA, Dose [Carcinogen]: 20 MG/KG INJECTION GIVEN TWICE 1 WK APART, Promoter: NONE USED). For the same compound, under “Carcinogen: N-NITROSOBIS(2-OXOPROPYL)AMINE, 60599-38-4, Dose [Inhibitor]: 0.5 MMOL/KG DIET FOR 209 D STARTING 2 WK AFTER LAST CARCINOGEN DOSE FOLLOWED BY 0.25 MMOL/KG DIET FOR 117 D WITH INTERMI, Route [Inhibitor]: ORAL, Species: HAMSTER, Strain/Sex: SYRIAN/MALE, Target Tissue: Type of Lesion: PANCREAS: CARCINOMA, Dose [Carcinogen]: 20 MG/KG INJECTION GIVEN TWICE 1 WK APART, Promoter: NONE USED”, the “tumour outcome (control, treated, inhibition, significance)” value is recorded as 34%, 30%, 12%, not significant.
